In ChEMBL document CHEMBL1133436 (Bioorg Med Chem Lett, 2000):

Tests used:
Homo sapiens = species: Homo sapiens; assay: Selectivity for alpha-2a to that of alpha2b determined by their binding affinity ratios
[1] = target: T1, Alpha-2A adrenergic receptor (Homo sapiens, UniProt P08913); assay: Binding affinity against human Alpha-2A adrenergic receptor expressed stably in CHO cells using [3H]rauwolscine as radioligand; format: cell-based
T1 sequence (P08913 whole entry): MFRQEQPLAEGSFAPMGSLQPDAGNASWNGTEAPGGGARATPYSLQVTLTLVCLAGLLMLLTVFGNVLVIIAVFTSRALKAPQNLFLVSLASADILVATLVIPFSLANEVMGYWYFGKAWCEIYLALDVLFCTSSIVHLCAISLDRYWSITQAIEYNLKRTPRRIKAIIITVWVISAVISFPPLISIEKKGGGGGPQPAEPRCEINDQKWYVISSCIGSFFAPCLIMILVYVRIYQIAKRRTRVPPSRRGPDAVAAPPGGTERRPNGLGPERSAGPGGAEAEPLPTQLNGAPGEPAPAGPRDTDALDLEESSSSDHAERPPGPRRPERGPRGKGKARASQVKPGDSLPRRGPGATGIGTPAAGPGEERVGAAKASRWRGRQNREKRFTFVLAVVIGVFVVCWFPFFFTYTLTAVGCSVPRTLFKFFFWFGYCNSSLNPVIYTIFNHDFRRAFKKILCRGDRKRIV

[2] = target: T2, Alpha-2B adrenergic receptor (Homo sapiens, UniProt P18089); assay: biochemical; format: cell-based, CHO
T2 sequence (P18089 whole entry): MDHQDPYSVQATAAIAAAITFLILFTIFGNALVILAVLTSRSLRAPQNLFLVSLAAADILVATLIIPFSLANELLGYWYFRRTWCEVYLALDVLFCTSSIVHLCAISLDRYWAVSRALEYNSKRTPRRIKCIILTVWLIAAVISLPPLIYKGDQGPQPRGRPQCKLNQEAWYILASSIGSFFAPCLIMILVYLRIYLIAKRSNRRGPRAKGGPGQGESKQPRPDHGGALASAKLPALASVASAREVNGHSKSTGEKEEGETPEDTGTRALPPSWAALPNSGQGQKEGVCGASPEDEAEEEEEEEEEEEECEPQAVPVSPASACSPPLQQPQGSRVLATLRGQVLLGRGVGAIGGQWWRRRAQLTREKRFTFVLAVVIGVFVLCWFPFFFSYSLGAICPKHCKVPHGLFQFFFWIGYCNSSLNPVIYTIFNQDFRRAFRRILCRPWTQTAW

Row | Selectivity (Homo sapiens) | Ki [1] [nM] | Ki [2] [nM] | SMILES
1 | 60.5 | – | – | O=C(NCCCCCCCCNC(=O)[C@@H]1[C@H]2C[C@H]3c4[nH]c5ccccc5c4CCN3C[C@@H]2CC[C@@H]1O)[C@@H]1[C@H]2C[C@H]3c4[nH]c5ccccc5c4CCN3C[C@@H]2CC[C@@H]1O
2 | 47.7 | – | – | O=C(NCCCCCCCCCCNC(=O)[C@@H]1[C@H]2C[C@H]3c4[nH]c5ccccc5c4CCN3C[C@@H]2CC[C@@H]1O)[C@@H]1[C@H]2C[C@H]3c4[nH]c5ccccc5c4CCN3C[C@@H]2CC[C@@H]1O
3 | 35.8 | 1.25 | 44.7 | O=C(NCCCCCCCCCNC(=O)[C@@H]1[C@H]2C[C@H]3c4[nH]c5ccccc5c4CCN3C[C@@H]2CC[C@@H]1O)[C@@H]1[C@H]2C[C@H]3c4[nH]c5ccccc5c4CCN3C[C@@H]2CC[C@@H]1O
4 | 15.7 | 1.18 | 18.5 | O=C(NCCCCCCCCCCCCNC(=O)[C@@H]1[C@H]2C[C@H]3c4[nH]c5ccccc5c4CCN3C[C@@H]2CC[C@@H]1O)[C@@H]1[C@H]2C[C@H]3c4[nH]c5ccccc5c4CCN3C[C@@H]2CC[C@@H]1O
